{"source": "patent US6656448B1", "about": "“Matrix metalloproteinase inhibitors” (Bristol-Myers Squibb Pharma Company, priority 2000, dated 2003)", "origin": "cited, not measured here", "tested_on": "MMP-2 and MMP-9", "data": [{"smiles": "O=C(NO)C1(CS(=O)(=O)c2ccc(Oc3ccc(Cl)cc3)cc2)CCOCC1", "note": "[Example 13]", "values": [{"measurement": "selectivity for MMP-2 and MMP-9", "result": "selectivity for MMP-2 and MMP-9"}]}]}
